According to PMC10033419, “Blocking NS3–NS4B interaction inhibits dengue virus in non-human primates” (Nature, 2023):
Read-outs that look alike come from different tables or passages of the source.

Tested on: DENV-2 RL
Experiment: microbe, parasite or virus in culture
Assay type: cell-based
Conditions: Dengue virus, DENV2, Vero

Measured: EC50

COc1cc(N[C@H](C(=O)c2c[nH]c3ccc(OC(F)(F)F)cc23)c2ccc(Cl)cc2OC)cc(S(C)(=O)=O)c1 [JNJ-1802]
0.195 ng/mL: read-out: EC50 values [Well 1], B sample, passage 11 | read-out: EC50 values [Well 1], B sample, passage 12 | read-out: EC50 values [Well 1], B sample, passage 16 | read-out: EC50 values [Well 1], B sample, passage 17 | read-out: EC50 values [Well 1], B sample, passage 18 | read-out: EC50 values [Well 2], A sample, passage 13 | read-out: EC50 values [Well 2], B sample, passage 13 | read-out: EC50 values [Well 2], B sample, passage 19 | read-out: EC50 values [Well 2], B sample, passage 20 | read-out: EC50 values [Well 2], B sample, passage 21 | read-out: EC50 values [Well 2], B sample, passage 22
15.6 ng/mL: read-out: EC50 values [Well 2], B sample, passage 31 | read-out: EC50 values [Well 2], B sample, passage 32
400 ng/mL: read-out: EC50 values [Well 1], A sample, passage 37 | read-out: EC50 values [Well 1], A sample, passage 38
125 ng/mL: read-out: EC50 values [Well 1], B sample, passage 39 | read-out: EC50 values [Well 2], B sample, passage 40
200 ng/mL: read-out: EC50 values [Well 1], A sample, passage 33 | read-out: EC50 values [Well 1], A sample, passage 34 | read-out: EC50 values [Well 1], A sample, passage 35 | read-out: EC50 values [Well 1], A sample, passage 36 | read-out: EC50 values [Well 2], A sample, passage 37 | read-out: EC50 values [Well 2], A sample, passage 38
62.5 ng/mL: read-out: EC50 values [Well 1], B sample, passage 33 | read-out: EC50 values [Well 1], B sample, passage 34 | read-out: EC50 values [Well 1], B sample, passage 35 | read-out: EC50 values [Well 1], B sample, passage 36 | read-out: EC50 values [Well 1], B sample, passage 37 | read-out: EC50 values [Well 1], B sample, passage 38 | read-out: EC50 values [Well 2], B sample, passage 39
500 ng/mL: read-out: EC50 values [Well 1], B sample, passage 41 | read-out: EC50 values [Well 1], B sample, passage 42 | read-out: EC50 values [Well 1], B sample, passage 43 | read-out: EC50 values [Well 1], B sample, passage 44 | read-out: EC50 values [Well 1], B sample, passage 45 | read-out: EC50 values [Well 1], B sample, passage 46 | read-out: EC50 values [Well 1], B sample, passage 47 | read-out: EC50 values [Well 2], A sample, passage 39 | read-out: EC50 values [Well 2], A sample, passage 40 | read-out: EC50 values [Well 2], A sample, passage 41 | read-out: EC50 values [Well 2], A sample, passage 42 (END) | read-out: EC50 values [Well 2], B sample, passage 48 | read-out: EC50 values [Well 2], B sample, passage 49 | read-out: EC50 values [Well 2], B sample, passage 50 (END)
100 ng/mL: read-out: EC50 values [Well 1], A sample, passage 32 | read-out: EC50 values [Well 2], A sample, passage 27 | read-out: EC50 values [Well 2], A sample, passage 28 | read-out: EC50 values [Well 2], A sample, passage 29 | read-out: EC50 values [Well 2], A sample, passage 30 | read-out: EC50 values [Well 2], A sample, passage 33 | read-out: EC50 values [Well 2], A sample, passage 34 | read-out: EC50 values [Well 2], A sample, passage 35 | read-out: EC50 values [Well 2], A sample, passage 36
31.3 ng/mL: read-out: EC50 values [Well 1], B sample, passage 31 | read-out: EC50 values [Well 1], B sample, passage 32 | read-out: EC50 values [Well 2], B sample, passage 33 | read-out: EC50 values [Well 2], B sample, passage 34 | read-out: EC50 values [Well 2], B sample, passage 35 | read-out: EC50 values [Well 2], B sample, passage 36 | read-out: EC50 values [Well 2], B sample, passage 37 | read-out: EC50 values [Well 2], B sample, passage 38
1000 ng/mL: read-out: EC50 values [Well 1], A sample, passage 39 | read-out: EC50 values [Well 1], A sample, passage 40 | read-out: EC50 values [Well 1], A sample, passage 41 | read-out: EC50 values [Well 1], A sample, passage 42 (END) | read-out: EC50 values [Well 1], B sample, passage 48 | read-out: EC50 values [Well 1], B sample, passage 49 | read-out: EC50 values [Well 1], B sample, passage 50 (END)
0.024 ng/mL: read-out: EC50 values [Well 2], A sample, passage 1 | read-out: EC50 values [Well 2], A sample, passage 2 | read-out: EC50 values [Well 2], A sample, passage 3 | read-out: EC50 values [Well 2], A sample, passage 4 | read-out: EC50 values [Well 2], A sample, passage 5 | read-out: EC50 values [Well 2], A sample, passage 7 | read-out: EC50 values [Well 2], A sample, passage 8 | read-out: EC50 values [Well 2], B sample, passage 1 | read-out: EC50 values [Well 2], B sample, passage 2 | read-out: EC50 values [Well 2], B sample, passage 3 | read-out: EC50 values [Well 2], B sample, passage 4 | read-out: EC50 values [Well 2], B sample, passage 5
25 ng/mL: read-out: EC50 values [Well 1], B sample, passage 29 | read-out: EC50 values [Well 1], B sample, passage 30 | read-out: EC50 values [Well 2], A sample, passage 24 | read-out: EC50 values [Well 2], A sample, passage 25
0.049 ng/mL: read-out: EC50 values [Well 1], B sample, passage 1 | read-out: EC50 values [Well 1], B sample, passage 2 | read-out: EC50 values [Well 1], B sample, passage 3 | read-out: EC50 values [Well 1], B sample, passage 4 | read-out: EC50 values [Well 1], B sample, passage 5 | read-out: EC50 values [Well 2], A sample, passage 6 | read-out: EC50 values [Well 2], A sample, passage 9 | read-out: EC50 values [Well 2], B sample, passage 6 | read-out: EC50 values [Well 2], B sample, passage 7 | read-out: EC50 values [Well 2], B sample, passage 8 | read-out: EC50 values [Well 2], B sample, passage 9 | read-out: EC50 values [Well 2], B sample, passage 10 | read-out: EC50 values [Well 2], B sample, passage 14 | read-out: EC50 values [Well 2], B sample, passage 15
50 ng/mL: read-out: EC50 values [Well 2], A sample, passage 26 | read-out: EC50 values [Well 2], A sample, passage 31 | read-out: EC50 values [Well 2], A sample, passage 32
3.13 ng/mL: read-out: EC50 values [Well 1], B sample, passage 25 | read-out: EC50 values [Well 2], A sample, passage 18 | read-out: EC50 values [Well 2], B sample, passage 26 | read-out: EC50 values [Well 2], B sample, passage 27 | read-out: EC50 values [Well 2], B sample, passage 28
6.25 ng/mL: read-out: EC50 values [Well 1], B sample, passage 26 | read-out: EC50 values [Well 1], B sample, passage 27 | read-out: EC50 values [Well 1], B sample, passage 28
12.5 ng/mL: read-out: EC50 values [Well 2], A sample, passage 20 | read-out: EC50 values [Well 2], A sample, passage 21 | read-out: EC50 values [Well 2], A sample, passage 22 | read-out: EC50 values [Well 2], A sample, passage 23 | read-out: EC50 values [Well 2], B sample, passage 29
0.391 ng/mL: read-out: EC50 values [Well 1], B sample, passage 13 | read-out: EC50 values [Well 1], B sample, passage 19 | read-out: EC50 values [Well 1], B sample, passage 20 | read-out: EC50 values [Well 1], B sample, passage 21 | read-out: EC50 values [Well 1], B sample, passage 22 | read-out: EC50 values [Well 2], A sample, passage 14 | read-out: EC50 values [Well 2], A sample, passage 15 | read-out: EC50 values [Well 2], B sample, passage 23
250 ng/mL: read-out: EC50 values [Well 1], B sample, passage 40 | read-out: EC50 values [Well 2], B sample, passage 41 | read-out: EC50 values [Well 2], B sample, passage 42 | read-out: EC50 values [Well 2], B sample, passage 43 | read-out: EC50 values [Well 2], B sample, passage 44 | read-out: EC50 values [Well 2], B sample, passage 45 | read-out: EC50 values [Well 2], B sample, passage 46 | read-out: EC50 values [Well 2], B sample, passage 47
1.56 ng/mL: read-out: EC50 values [Well 1], B sample, passage 24 | read-out: EC50 values [Well 2], A sample, passage 17 | read-out: EC50 values [Well 2], B sample, passage 25
